# Results as given in patent publication US7601683B2, “Protein conformational isomers, methods of making, methods for using, compositions comprising and products made therewith” (Board of Regents of the University of Texas System, priority 2001, dated 2009).
# Where two headings read alike, the source gives them in different places.
# Target: tick anticoagulant peptide (TAP) (Ornithodoros moubata, UniProt P17726)
# Sequence (P17726 whole entry): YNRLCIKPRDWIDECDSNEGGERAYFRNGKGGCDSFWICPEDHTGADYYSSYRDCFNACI
structure (smiles),measurement,setting,value
[Cl-].[Na+] [NaCl],reduction of the extent of denaturation of TAP by 8M urea,in the presence of 0.5 M NaCl,23%
same,reduction of the extent of denaturation of TAP by 8M urea,in the presence of 1M NaCl,50%
same,reversal of the structure of denatured TAP,"in the presence of urea, after addition of the protein stabilizer (FIG. 7 column 3)",converts back to the native structure
